Experimental data from patent US11028079B2 (ConverGene LLC, priority 2015, dated 2021).

These compounds were tested against T1, BRD4 bromodomains (Homo sapiens, UniProt O60885) (assay: BROMOscan bromodomain competition binding assay (DiscoveRx)). Settings: Kd from 11 compound concentrations ranging from 0 to 10 μM, read-out: BROMOscan Relative Activity.
T1 construct: fused on or other part: T7 phage capsid protein (phage-display fusion; the phage DNA is read out by qPCR)
In short: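 Compounds in 0.1% DMSO/0.9% MEG competed with a solid-phase acetylated peptide for T7 phage-fused BRD4 bromodomains, with the retained bromodomain measured by qPCR.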
In the case of `Cc1noc(C)c1-c1ccc2nc(C(=O)N3CCc4cnn(C)c4C3)nc(N3CCOC[C@@H]3c3ccccc3)c2c1` [Example 317, (S)-(6-(3,5-dimethylisoxazol-4-yl)-4-(3-phenylmorpholino)quinazolin-2-yl)(1-methyl-1,4,5,7-tetrahydro-6H-pyrazolo[3,4-c]pyridin-6-yl)methanone], the Kd is reported as 500 to 5000 nM.
`Cc1noc(C)c1-c1ccc2nc(N3CCN(CC(=O)N(C)C)CC3)nc(N3CCOC[C@@H]3c3ccccc3)c2c1` [Example 303, (S)-2-(4-(6-(3,5-dimethylisoxazol-4-yl)-4-(3-phenylmorpholino)quinazolin-2-yl)piperazin-1-yl)-N,N-dimethylacetamide] gave a Kd of less than 500 nM.
For `Cc1noc(C)c1-c1ccc2nc(N3CCN(CCN(C)C)CC3)nc(N3CCCC3c3ccccc3)c2c1` (centres unmarked) [Example 174, 2-(4-(6-(3,5-dimethylisoxazol-4-yl)-4-(2-phenylpyrrolidin-1-yl)quinazolin-2-yl)piperazin-1-yl)-N,N-dimethylethanamine], the Kd was less than 500 nM.
Compound `Cc1noc(C)c1-c1ccc2nc(N3CCC4(CCC(=O)N4)CC3)nc(N3CCOC[C@@H]3c3ccccc3)c2c1` [Example 314, (S)-8-(6-(3,5-dimethylisoxazol-4-yl)-4-(3-phenylmorpholino)quinazolin-2-yl)-1,8-diazaspiro[4.5]decan-2-one] has a Kd of less than 500 nM.
Compound `CNC(=O)C1CCN(c2ncnc3ccc(-c4c(C)noc4C)cc23)CC1` [Example 270, 1-(6-(3,5-dimethylisoxazol-4-yl)quinazolin-4-yl)-N-methylpiperidine-4-carboxamide] has a Kd of less than 500 nM.
`Cc1noc(C)c1-c1ccc2nc(C(=O)NCc3cnn(C)c3C)nc(NCc3cccc(Cl)c3)c2c1` [Example 190, 4-((3-chlorobenzyl)amino)-N-((1,5-dimethyl-1H-pyrazol-4-yl)methyl)-6-(3,5-dimethylisoxazol-4-yl)quinazoline-2-carboxamide] was tested, and the Kd was less than 500 nM.
`Cc1nn(C)cc1CNC(=O)c1nc(NC2(c3cccc(Cl)c3)CC2)c2cc(-c3c(C)noc3C)ccc2n1` [Example 245, 4-((1-(3-chlorophenyl)cyclopropyl)amino)-N-((1,3-dimethyl-1H-pyrazol-4-yl)methyl)-6-(3,5-dimethylisoxazol-4-yl)quinazoline-2-carboxamide] was tested, and the Kd was less than 500 nM.
`Cc1cnc(CNC(=O)c2nc(NCc3cccc(Cl)c3)c3cc(-c4c(C)noc4C)ccc3n2)s1` [Example 213, 4-((3-chlorobenzyl)amino)-6-(3,5-dimethylisoxazol-4-yl)-N-((5-methylthiazol-2-yl)methyl)quinazoline-2-carboxamide] gave a Kd of less than 500 nM.
For `Cc1noc(C)c1-c1ccc2nc(N3CCCN(CCO)CC3)nc(NCc3cccc(Cl)c3)c2c1` [Example 33, 2-(4-(4-((3-chlorobenzyl)amino)-6-(3,5-dimethylisoxazol-4-yl)quinazolin-2-yl)-1,4-diazepan-1-yl)ethanol], the Kd was less than 500 nM.
With `Cc1oncc1-c1ccc2nc(N3CCN(CCN(C)C)CC3)nc(NCc3cccc(Cl)c3)c2c1` [Example 78, N-(3-chlorobenzyl)-2-(4-(2-(dimethylamino)ethyl)piperazin-1-yl)-6-(5-methylisoxazol-4-yl)quinazolin-4-amine] the Kd was 500 to 5000 nM.
For `Cc1noc(C)c1-c1ccc2nc(N3CCc4c(ncn4C)C3)nc(N3CCOC[C@@H]3c3ccccc3)c2c1` [Example 328, (S)-4-(6-(3,5-dimethylisoxazol-4-yl)-2-(1-methyl-1,4,6,7-tetrahydro-5H-imidazo[4,5-c]pyridin-5-yl)quinazolin-4-yl)-3-phenylmorpholine], the Kd was less than 500 nM.
Compound `Cc1noc(C)c1-c1ccc2nc(N3CCN(CC(C)(C)O)CC3)nc(NCc3cccc(Cl)c3)c2c1` [Example 137, 1-(4-(4-((3-chlorobenzyl)amino)-6-(3,5-dimethylisoxazol-4-yl)quinazolin-2-yl)piperazin-1-yl)-2-methylpropan-2-ol] has a Kd of 500 to 5000 nM.
`Cc1noc(C)c1-c1ccc2nc(N3CCN(CCN(C)C)CC3)nc(NCc3cccc(Br)c3)c2c1` [Example 75, N-(3-bromobenzyl)-2-(4-(2-(dimethylamino)ethyl)piperazin-1-yl)-6-(3,5-dimethylisoxazol-4-yl)quinazolin-4-amine] showed a Kd of less than 500 nM.
Work on `Cc1noc(C)c1-c1ccc2nc(N3CCN(CCN(C)C)CC3)nc(NCc3cc(Cl)ccn3)c2c1` [Example 82, N-((4-chloropyridin-2-yl)methyl)-2-(4-(2-(dimethylamino)ethyl)piperazin-1-yl)-6-(3,5-dimethylisoxazol-4-yl)quinazolin-4-amine] yielded a Kd of less than 500 nM.
With `CC(=O)N1CCC(NC(=O)c2nc(NCc3cccc(Cl)c3)c3cc(-c4c(C)noc4C)ccc3n2)CC1` [Example 199, N-(1-acetylpiperidin-4-yl)-4-((3-chlorobenzyl)amino)-6-(3,5-dimethylisoxazol-4-yl)quinazoline-2-carboxamide] the Kd was less than 500 nM.
Work on `Cc1noc(C)c1-c1ccc2nc(N3CCN(C[C@H](C)O)CC3)nc(NCc3cccc(Cl)c3)c2c1` [Example 47, (S)-1-(4-(4-((3-chlorobenzyl)amino)-6-(3,5-dimethylisoxazol-4-yl)quinazolin-2-yl)piperazin-1-yl)propan-2-ol] yielded a Kd of less than 500 nM.
In the case of `Cc1noc(C)c1-c1ccc2nc(N3CCN(C)CC3)nc(N3CCOC[C@@H]3c3ccccc3)c2c1` [Example 293, (S)-4-(6-(3,5-dimethylisoxazol-4-yl)-2-(4-methylpiperazin-1-yl)quinazolin-4-yl)-3-phenylmorpholine], the Kd is reported as less than 500 nM.
Work on `Cc1noc(C)c1-c1ccc2nc(N3CCc4ncn(C)c4C3)nc(N3CCOC[C@@H]3c3ccccc3)c2c1` [Example 311, (S)-4-(6-(3,5-dimethylisoxazol-4-yl)-2-(3-methyl-3,4,6,7-tetrahydro-5H-imidazo[4,5-c]pyridin-5-yl)quinazolin-4-yl)-3-phenylmorpholine] yielded a Kd of less than 500 nM.
`Cc1cncc(CNC(=O)c2nc(NCc3cccc(Cl)c3)c3cc(-c4c(C)noc4C)ccc3n2)c1` [Example 193, 4-((3-chlorobenzyl)amino)-6-(3,5-dimethylisoxazol-4-yl)-N-((5-methylpyridin-3-yl)methyl)quinazoline-2-carboxamide] gave a Kd of less than 500 nM.
`Cc1noc(C)c1-c1ccc2nc(NCc3ncc[nH]3)nc(NCc3cccc(Cl)c3)c2c1` [Example 178, N2-((1H-imidazol-2-yl)methyl)-N4-(3-chlorobenzyl)-6-(3,5-dimethylisoxazol-4-yl)quinazoline-2,4-diamine] gave a Kd of less than 500 nM.
`Cc1noc(C)c1-c1ccc2nc(N3CCN(S(C)(=O)=O)CC3)nc(NCc3cncc(Cl)c3)c2c1` [Example 152, N-((5-chloropyridin-3-yl)methyl)-6-(3,5-dimethylisoxazol-4-yl)-2-(4-(methylsulfonyl)piperazin-1-yl)quinazolin-4-amine] showed a Kd of less than 500 nM.
`Cc1noc(C)c1-c1ccc2nc(N3CCC4(CC3)CC(O)C4)nc(N3CCOC[C@@H]3c3ccccc3)c2c1` [Example 313, (S)-7-(6-(3,5-dimethylisoxazol-4-yl)-4-(3-phenylmorpholino)quinazolin-2-yl)-7-azaspiro 13.51 nonan-2-ol] showed a Kd of less than 500 nM.
`Cc1noc(C)c1-c1ccc2nc(-c3ccc(CO)s3)nc(N3CCOC[C@@H]3c3ccccc3)c2c1` [Example 323, (S)-(5-(6-(3,5-dimethylisoxazol-4-yl)-4-(3-phenylmorpholino)quinazolin-2-yl)thiophen-2-yl)methanol] was tested, and the Kd was 500 to 5000 nM.
With `Cc1noc(C)c1-c1ccc2nc(N3CCN(CC(N)=O)CC3)nc(NCc3cccc(Cl)c3)c2c1` [Example 54, 2-(4-(4-((3-chlorobenzyl)amino)-6-(3,5-dimethylisoxazol-4-yl)quinazolin-2-yl)piperazin-1-yl)acetamide] the Kd was less than 500 nM.
`CNC(=O)CN1CCN(c2nc(NCc3cncc(Cl)c3)c3cc(-c4ccc(=O)n(C)c4)ccc3n2)CC1` [Example 128, 2-(4-(4-(((5-chloropyridin-3-yl)methyl)amino)-6-(1-methyl-6-oxo-1,6-dihydropyridin-3-yl)quinazolin-2-yl)piperazin-1-yl)-N-methylacetamide] was tested, and the Kd was less than 500 nM.
With `Cc1noc(C)c1-c1ccc2nc(-c3cnn(CC(=O)O)c3)nc(NCc3cccc(Cl)c3)c2c1` [Example 166, 2-(4-(4-((3-chlorobenzyl)amino)-6-(3,5-dimethylisoxazol-4-yl)quinazolin-2-yl)-1H-pyrazol-1-yl)acetic acid] the Kd was less than 500 nM.
Work on `Cc1noc(C)c1-c1ccc2nc(C(=O)NC3CN(C)C3)nc(N3CCOC[C@@H]3c3ccccc3)c2c1` [Example 277, (S)-6-(3,5-dimethylisoxazol-4-yl)-N-(1-methylazetidin-3-yl)-4-(3-phenylmorpholino)quinazoline-2-carboxamide] yielded a Kd of less than 500 nM.
With `Cc1noc(C)c1-c1ccc2nc(C(=O)NC3CCN(C)CC3)nc(N3CCOC[C@@H]3c3ccccc3)c2c1` [Example 280, (S)-6-(3,5-dimethylisoxazol-4-yl)-N-(1-methylpiperidin-4-yl)-4-(3-phenylmorpholino)quinazoline-2-carboxamide] the Kd was less than 500 nM.
Compound `Cc1noc(C)c1-c1ccc2nc(N3CCN(CC(N)=O)CC3)nc(NCc3cncc(Cl)c3)c2c1` [Example 117, 2-(4-(4-(((5-chloropyridin-3-yl)methyl)amino)-6-(3,5-dimethylisoxazol-4-yl)quinazolin-2-yl)piperazin-1-yl)acetamide] has a Kd of less than 500 nM.
`Cc1noc(C)c1-c1ccc2nc(N3CCN(S(C)(=O)=O)CC3)nc(NCc3cccc(Cl)c3)c2c1` [Example 155, N-(3-chlorobenzyl)-6-(3,5-dimethylisoxazol-4-yl)-2-(4-(methylsulfonyl)piperazin-1-yl)quinazolin-4-amine] gave a Kd of less than 500 nM.
`Cc1csc(CNC(=O)c2nc(NCc3cccc(Cl)c3)c3cc(-c4c(C)noc4C)ccc3n2)n1` [Example 214, 4-((3-chlorobenzyl)amino)-6-(3,5-dimethylisoxazol-4-yl)-N-((4-methylthiazol-2-yl)methyl)quinazoline-2-carboxamide] showed a Kd of less than 500 nM.
`Cc1noc(C)c1-c1ccc2nc(N3CCN(CCN(C)C)CC3)nc(O)c2c1` [Example 68, 2-(4-(2-(dimethylamino)ethyl)piperazin-1-yl)-6-(3,5-dimethylisoxazol-4-yl)quinazolin-4-ol] gave a Kd of 500 to 5000 nM.
